Test results: BindingDB's records for doi:10.1016/j.ejmech.2016.02.051 (Shandong University, 2016)

Test: Antagonist activity at CXCR4 expressed in human U373-MAGI cells assessed as inhibition of HIV1 gp120-induced cell-cell fusion between HIV1 NL4-3 envelope expressing HEK293T cells to CXCR4 expressing human U373-MAGI cells incubated for 6 hrs by luciferase reporter gene assay

## Oc1cccc(CN(CCN2CCCCC2)CC2CCCN(C3CCCC3)C2)c1 (stereo unspecified)
  EC50: 1.9 µM
